Reference: ChEMBL document CHEMBL3880421, “Indazole compounds and pharmaceutical compositions for inhibiting protein kinases, and methods for their use” (2003)

Experiment: Antiproliferative activity against VEGF-stimulated HUVEC cells assessed as reduction in cell viability at 0.5 nM preincubated for 1 hr followed by addition of VEGF measured after 72 hrs by MTT assay
Format: functional
Settings: Homo sapiens

SMILES | inhibition at 0.0005 µM [%]
O=C(Nc1ccc(O)cc1O)c1ccccc1Sc1ccc2c(/C=C/c3ccccn3)n[nH]c2c1 | 20
O=C(N[C@H]1CC2CCC1C2)c1ccccc1Sc1ccc2c(/C=C/c3ccccn3)n[nH]c2c1 (some centres not stated) | -9
CCCCc1ccc(NC(=O)c2ccccc2Sc2ccc3c(/C=C/c4ccccn4)n[nH]c3c2)cc1 | -22
Cc1ccc(Cl)cc1NC(=O)c1ccccc1Sc1ccc2c(/C=C/c3ccccn3)n[nH]c2c1 | 22
COc1ccc(C(N)=O)cc1NC(=O)c1ccccc1Sc1ccc2c(/C=C/c3ccccn3)n[nH]c2c1 | 5
O=C(N[C@@H]1C[C@H]1c1ccccc1)c1ccccc1Sc1ccc2c(/C=C/c3ccccn3)n[nH]c2c1 (racemic) | 10
CC(=O)Nc1cccc(NC(=O)c2ccccc2Sc2ccc3c(/C=C/c4ccccn4)n[nH]c3c2)c1 | -29
O=C(NNC(=O)c1ccccc1Nc1ccc2c(/C=C/c3ccccn3)n[nH]c2c1)c1ccccn1 | 69
CCc1cccc(C)c1NC(=O)c1ccccc1Sc1ccc2c(/C=C/c3ccccn3)n[nH]c2c1 | -4
O=C(NCc1ccc2c(c1)OCO2)c1ccccc1Nc1ccc2c(/C=C/c3ccccn3)n[nH]c2c1 | 46
C#CCNC(=O)c1ccccc1Nc1ccc2c(/C=C/c3ccccn3)n[nH]c2c1 | 95
Cc1ccc(NC(=O)c2ccccc2Sc2ccc3c(/C=C/c4ccccn4)n[nH]c3c2)cc1Cl | -11
O=C(Nc1cc(Cl)ccc1O)c1ccccc1Sc1ccc2c(/C=C/c3ccccn3)n[nH]c2c1 | -22
CC(C)(NC(=O)c1ccccc1Sc1ccc2c(/C=C/c3ccccn3)n[nH]c2c1)c1ccccc1 | -25
Cc1ccc(NC(=O)c2ccccc2Sc2ccc3c(/C=C/c4ccccn4)n[nH]c3c2)cc1 | -15
Cc1ccccc1NC(=O)c1ccccc1Sc1ccc2c(/C=C/c3ccccn3)n[nH]c2c1 | 5
O=C(NCc1cc(F)cc(F)c1F)c1ccccc1Sc1ccc2c(/C=C/c3ccccn3)n[nH]c2c1 | 24
Cc1c(Cl)cccc1NC(=O)c1ccccc1Sc1ccc2c(/C=C/c3ccccn3)n[nH]c2c1 | 9
O=C(Nc1cc(F)cc(F)c1)c1ccccc1Sc1ccc2c(/C=C/c3ccccn3)n[nH]c2c1 | -36
O=C(NCc1ccc2c(c1)OCC2)c1ccccc1Sc1ccc2c(/C=C/c3ccccn3)n[nH]c2c1 | 14
CCCOCCNC(=O)c1ccccc1Nc1ccc2c(/C=C/c3ccccn3)n[nH]c2c1 | 28

SMILES | inhibition at 0.0005 µM [%]
Cc1nc(O)cc(NC(=O)c2ccccc2Sc2ccc3c(/C=C/c4ccccn4)n[nH]c3c2)n1 | 3
CCC(NC(=O)c1ccccc1Nc1ccc2c(/C=C/c3ccccn3)n[nH]c2c1)c1ccccc1 (configuration not stated) | 45
CC(C)OCCNC(=O)c1ccccc1Nc1ccc2c(/C=C/c3ccccn3)n[nH]c2c1 | 51
O=C(NCc1ccccc1)c1ccccc1Nc1ccc2c(/C=C/c3ccccn3)n[nH]c2c1 | 70
Cc1cc(C)cc(NC(=O)c2ccccc2Sc2ccc3c(/C=C/c4ccccn4)n[nH]c3c2)c1 | -4
O=C(NC[C@H]1CCCO1)c1ccccc1Sc1ccc2c(/C=C/c3ccccn3)n[nH]c2c1 | -11
O=C(N[C@H](CO)[C@H](O)c1ccccc1)c1ccccc1Sc1ccc2c(/C=C/c3ccccn3)n[nH]c2c1 | -1
O=C(Nc1c(F)cccc1Cl)c1ccccc1Sc1ccc2c(/C=C/c3ccccn3)n[nH]c2c1 | 12
CCC(C)(C)NC(=O)c1ccccc1Sc1ccc2c(/C=C/c3ccccn3)n[nH]c2c1 | -29
C[C@@H](NC(=O)c1ccccc1Sc1ccc2c(/C=C/c3ccccn3)n[nH]c2c1)c1ccc2ccccc2c1 | 1
O=C(NCc1ccco1)c1ccccc1Nc1ccc2c(/C=C/c3ccccn3)n[nH]c2c1 | 70
C[C@H](NC(=O)c1ccccc1Sc1ccc2c(/C=C/c3ccccn3)n[nH]c2c1)c1cccc2ccccc12 | -20
CC(C)(C)CC(C)(C)NC(=O)c1ccccc1Sc1ccc2c(/C=C/c3ccccn3)n[nH]c2c1 | 0
COc1ccc(CNC(=O)c2ccccc2Nc2ccc3c(/C=C/c4ccccn4)n[nH]c3c2)cc1 | 63
CC(O)c1cccc(NC(=O)c2ccccc2Sc2ccc3c(/C=C/c4ccccn4)n[nH]c3c2)c1 (configuration not stated) | -32
CNC(=O)c1cccc(NC(=O)c2ccccc2Sc2ccc3c(/C=C/c4ccccn4)n[nH]c3c2)c1 | -11
COc1cccc(OC)c1NC(=O)c1ccccc1Sc1ccc2c(/C=C/c3ccccn3)n[nH]c2c1 | -57
CC(C)(Cc1ccc(F)cc1)NC(=O)c1ccccc1Sc1ccc2c(/C=C/c3ccccn3)n[nH]c2c1 | -7
CCOC(=O)c1cccc(NC(=O)c2ccccc2Sc2ccc3c(/C=C/c4ccccn4)n[nH]c3c2)c1 | 7
O=C(NCC12CC3CC(CC(C3)C1)C2)c1ccccc1Sc1ccc2c(/C=C/c3ccccn3)n[nH]c2c1 | 1
O=C(Nc1ccc(O)c2ccccc12)c1ccccc1Sc1ccc2c(/C=C/c3ccccn3)n[nH]c2c1 | 4

SMILES | inhibition at 0.0005 µM [%]
O=C(N[C@H](CO)Cc1ccccc1)c1ccccc1Sc1ccc2c(/C=C/c3ccccn3)n[nH]c2c1 | 1
C[N+](C)(C)NC(=O)c1ccccc1Nc1ccc2c(/C=C/c3ccccn3)n[nH]c2c1 | 8
Cc1ccc(F)cc1NC(=O)c1ccccc1Sc1ccc2c(/C=C/c3ccccn3)n[nH]c2c1 | 12
O=C(NCCCc1ccccc1)c1ccccc1Nc1ccc2c(/C=C/c3ccccn3)n[nH]c2c1 | 50
O=C(Nc1cncc(Cl)n1)c1ccccc1Sc1ccc2c(/C=C/c3ccccn3)n[nH]c2c1 | 17
O=C(NC[C@@H](O)c1ccccc1)c1ccccc1Sc1ccc2c(/C=C/c3ccccn3)n[nH]c2c1 | 2
C[C@@H](NC(=O)c1ccccc1Sc1ccc2c(/C=C/c3ccccn3)n[nH]c2c1)C1CCCCC1 | 9
C[C@H](NC(=O)c1ccccc1Sc1ccc2c(/C=C/c3ccccn3)n[nH]c2c1)C1CCCCC1 | -12
O=C(Nc1nccc2cccnc12)c1ccccc1Sc1ccc2c(/C=C/c3ccccn3)n[nH]c2c1 | -3
O=C(Nc1nccnn1)c1ccccc1Sc1ccc2c(/C=C/c3ccccn3)n[nH]c2c1 | 3
COc1ccccc1NC(=O)c1ccccc1Sc1ccc2c(/C=C/c3ccccn3)n[nH]c2c1 | -8
O=C(N[C@@H](CO)Cc1ccccc1)c1ccccc1Sc1ccc2c(/C=C/c3ccccn3)n[nH]c2c1 | -3
COc1ccc(NC(=O)c2ccccc2Sc2ccc3c(/C=C/c4ccccn4)n[nH]c3c2)cc1O | -19
Cc1ccc(C(N)=O)cc1NC(=O)c1ccccc1Sc1ccc2c(/C=C/c3ccccn3)n[nH]c2c1 | 15
Cc1cc(NC(=O)c2ccccc2Sc2ccc3c(/C=C/c4ccccn4)n[nH]c3c2)ccc1C(C)C | 6
CC(C)Oc1ccc(NC(=O)c2ccccc2Sc2ccc3c(/C=C/c4ccccn4)n[nH]c3c2)cc1 | -9
O=C(Nc1c(Cl)cccc1Cl)c1ccccc1Sc1ccc2c(/C=C/c3ccccn3)n[nH]c2c1 | -45
O=C(Nc1cnc2ccccc2c1)c1ccccc1Sc1ccc2c(/C=C/c3ccccn3)n[nH]c2c1 | -8
O=C(NNC(=O)c1ccccc1Nc1ccc2c(/C=C/c3ccccn3)n[nH]c2c1)c1cccnc1 | 31
CC(C)(C)OC(=O)C(C)(C)NC(=O)c1ccccc1Sc1ccc2c(/C=C/c3ccccn3)n[nH]c2c1 | 6
Cc1cccc(CNC(=O)c2ccccc2Nc2ccc3c(/C=C/c4ccccn4)n[nH]c3c2)c1 | 19

SMILES | inhibition at 0.0005 µM [%]
CCOC(=O)c1c[nH]nc1NC(=O)c1ccccc1Sc1ccc2c(/C=C/c3ccccn3)n[nH]c2c1 | -11
CC(C)(C)c1cccc(NC(=O)c2ccccc2Sc2ccc3c(/C=C/c4ccccn4)n[nH]c3c2)c1 | -5
COc1ccc(NC(=O)c2ccccc2Sc2ccc3c(/C=C/c4ccccn4)n[nH]c3c2)cc1 | 4
Cc1c(O)cccc1NC(=O)c1ccccc1Sc1ccc2c(/C=C/c3ccccn3)n[nH]c2c1 | 1
O=C(N[C@@H](CO)c1ccccc1)c1ccccc1Sc1ccc2c(/C=C/c3ccccn3)n[nH]c2c1 | -17
CC1(C)C2CC[C@H](CNC(=O)c3ccccc3Sc3ccc4c(/C=C/c5ccccn5)n[nH]c4c3)C1C2 (some centres not stated) | -19
Cc1ccccc1C(=O)NNC(=O)c1ccccc1Nc1ccc2c(/C=C/c3ccccn3)n[nH]c2c1 | 86
C[C@H](NC(=O)c1ccccc1Sc1ccc2c(/C=C/c3ccccn3)n[nH]c2c1)c1ccc2ccccc2c1 | -8
O=C(NC[C@@H]1CCCO1)c1ccccc1Sc1ccc2c(/C=C/c3ccccn3)n[nH]c2c1 | -8
O=C(N[C@@H]1c2ccccc2C[C@@H]1O)c1ccccc1Sc1ccc2c(/C=C/c3ccccn3)n[nH]c2c1 | -6
O=C(Nc1cc(F)c(F)c(F)c1)c1ccccc1Sc1ccc2c(/C=C/c3ccccn3)n[nH]c2c1 | 0
COC(=O)c1ccc(NC(=O)c2ccccc2Sc2ccc3c(/C=C/c4ccccn4)n[nH]c3c2)c(O)c1 | -22
O=C(NCCc1cccs1)c1ccccc1Sc1ccc2c(/C=C/c3ccccn3)n[nH]c2c1 | 36
CCCCCNC(=O)c1ccccc1Nc1ccc2c(/C=C/c3ccccn3)n[nH]c2c1 | 49
Cc1cc(C)c(NC(=O)c2ccccc2Sc2ccc3c(/C=C/c4ccccn4)n[nH]c3c2)c(C)c1 | -10
O=C(Nc1cccc2c1CCCC2)c1ccccc1Sc1ccc2c(/C=C/c3ccccn3)n[nH]c2c1 | -17
CNc1ccccc1NC(=O)c1ccccc1Sc1ccc2c(/C=C/c3ccccn3)n[nH]c2c1 | -2
Cc1cccc(NC(=O)c2ccccc2Sc2ccc3c(/C=C/c4ccccn4)n[nH]c3c2)c1 | 3
O=C(Nc1ccccc1Cl)c1ccccc1Sc1ccc2c(/C=C/c3ccccn3)n[nH]c2c1 | -2
